The target in one assay is Carbonic anhydrase 1 (Homo sapiens, UniProt P00915). Put plainly: Binding affinity to human CA1 assessed as inhibition constant incubated for 6 hrs by phenol red dye based stopped flow CO2 hydration assay.
For the next assay, the target named is Carbonic anhydrase 2 (Homo sapiens, UniProt P00918). As to the kind of experiment: Binding affinity to human CA2 assessed as inhibition constant incubated for 6 hrs by phenol red dye based stopped flow CO2 hydration assay.
A further assay concerns the target Carbonic anhydrase 9 (Homo sapiens, UniProt Q16790).
For the next assay, the target named is Carbonic anhydrase 12 (Homo sapiens, UniProt O43570). Put plainly: Binding affinity to human CA12 assessed as inhibition constant incubated for 6 hrs by phenol red dye based stopped flow CO2 hydration assay.
Sequence of Carbonic anhydrase 12 (O43570 whole entry): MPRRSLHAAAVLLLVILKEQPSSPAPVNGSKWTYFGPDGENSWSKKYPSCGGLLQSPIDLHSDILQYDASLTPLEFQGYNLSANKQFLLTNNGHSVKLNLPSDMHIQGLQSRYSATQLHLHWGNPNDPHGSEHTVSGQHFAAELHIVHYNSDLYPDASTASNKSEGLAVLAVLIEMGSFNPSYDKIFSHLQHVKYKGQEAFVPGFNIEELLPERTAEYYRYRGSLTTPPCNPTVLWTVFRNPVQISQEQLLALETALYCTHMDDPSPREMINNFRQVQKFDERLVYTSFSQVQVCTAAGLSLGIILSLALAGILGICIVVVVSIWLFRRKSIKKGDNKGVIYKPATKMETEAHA
For assay [1], the target named is Estrogen receptor beta (Homo sapiens) (UniProt Q92731). Put plainly: Partial agonist activity at wild type human ERbeta in HEK-293T cells transfected with 3xERE-driven luciferase reporter plasmid by luciferase reporter gene assay. The class given is cell-based. In general terms: A reporter such as luciferase makes a cellular process visible.
Sequence of Estrogen receptor beta (Homo sapiens) (Q92731 whole entry): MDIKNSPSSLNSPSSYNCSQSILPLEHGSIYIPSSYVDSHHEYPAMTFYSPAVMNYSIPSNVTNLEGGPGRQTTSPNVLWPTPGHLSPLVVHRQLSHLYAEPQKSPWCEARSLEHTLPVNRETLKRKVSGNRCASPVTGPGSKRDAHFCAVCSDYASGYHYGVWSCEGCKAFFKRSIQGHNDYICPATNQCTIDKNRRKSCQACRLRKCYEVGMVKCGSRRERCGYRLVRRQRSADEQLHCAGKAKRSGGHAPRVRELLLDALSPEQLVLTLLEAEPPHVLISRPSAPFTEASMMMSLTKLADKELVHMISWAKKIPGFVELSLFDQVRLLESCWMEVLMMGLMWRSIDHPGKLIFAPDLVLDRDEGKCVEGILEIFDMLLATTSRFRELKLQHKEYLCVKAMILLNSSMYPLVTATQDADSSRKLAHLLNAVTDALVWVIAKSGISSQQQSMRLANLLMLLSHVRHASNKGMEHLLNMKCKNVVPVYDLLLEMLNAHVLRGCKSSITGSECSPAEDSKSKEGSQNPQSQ

Activity calls are given as the source filed them. The rule behind the calls is not given here.

Sequence of Carbonic anhydrase 1 (P00915 whole entry): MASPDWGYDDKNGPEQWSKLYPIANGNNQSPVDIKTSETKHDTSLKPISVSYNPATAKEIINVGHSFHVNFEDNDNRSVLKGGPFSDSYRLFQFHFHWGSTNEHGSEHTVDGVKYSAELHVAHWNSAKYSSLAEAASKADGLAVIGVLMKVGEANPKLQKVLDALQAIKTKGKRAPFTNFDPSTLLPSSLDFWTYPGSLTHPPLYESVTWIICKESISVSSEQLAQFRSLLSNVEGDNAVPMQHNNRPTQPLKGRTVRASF
Description for Carbonic anhydrase 9: Binding affinity to human CA9 assessed as inhibition constant incubated for 6 hrs by phenol red dye based stopped flow CO2 hydration assay

Consider `NS(=O)(=O)c1ccc2c(c1)C1C=CCC1C(c1ccccc1Cl)N2` (racemic), for which the Ki (commonly a dissociation constant, usually derived from enzyme kinetics or from competition with a known ligand) on Carbonic anhydrase 1 worked out at 73.6 nM; on Carbonic anhydrase 2, 2.2 nM; at Carbonic anhydrase 9 it was 2090 nM; at Carbonic anhydrase 12, 256 nM. Also, in assay [1], the result was inactive.

(Values after ChEMBL document CHEMBL5352473, “Design, synthesis, biological evaluation and crystal structure determination of dual modulators of carbonic anhydrases and estrogen receptors” (Eur J Med Chem, 2023).)
